Results from US20250154173A1 (Merck Sharp & Dohme LLC, priority 2023, published 2025).

target: T1, GST-RIPK1 (recombinant GST-RIPK1 kinase domain (residues 1-327)) (Homo sapiens, UniProt Q13546); test: RIPK1-ADP-Glo Enzymatic Assay; type: biochemical; settings: ten-point titration, top compound concentration of 100000 nM; 25 nM GST-RIPK1, 300 μM ATP, 3 μM dephosphorylated-MBP; 30 min pre-incubation, 150 min reaction
T1 construct: recombinant GST-RIPK1 kinase domain (residues 1-327) enzyme produced from baculovirus-transfected Sf21 cells; host or cells: baculovirus-transfected Sf21 insect cells
T1 sequence (Q13546 1-327): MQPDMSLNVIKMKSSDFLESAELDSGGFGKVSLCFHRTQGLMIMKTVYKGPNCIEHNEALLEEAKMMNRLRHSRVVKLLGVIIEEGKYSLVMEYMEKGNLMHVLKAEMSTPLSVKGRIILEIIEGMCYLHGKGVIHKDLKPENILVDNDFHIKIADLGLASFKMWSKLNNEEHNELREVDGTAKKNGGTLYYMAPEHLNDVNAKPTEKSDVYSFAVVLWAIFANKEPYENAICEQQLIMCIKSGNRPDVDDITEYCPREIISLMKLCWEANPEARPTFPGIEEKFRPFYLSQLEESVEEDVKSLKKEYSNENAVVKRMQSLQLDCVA
Outline: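 ADP-Glo luminescence quantifies ADP formed over 150 minutes by 25 nM Sf21-produced GST-RIPK1 (1-327) using 300 μM ATP and 3 μM dephosphorylated MBP, following 30-minute compound preincubation at 1% DMSO. Ten-point 1:3 series from 100000 nM gave EC50 via four-parameter sigmoidal regression.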

EC50 | Compound
0.428 µM | O=C1N2C(CC[C@H]2c2cnccn2)OC12CC(OCc1ccnc3ccnn13)C2 (stereo partly drawn) [Example 18.31, (5′S)-5′-(pyrazin-2-yl)-3-[(pyrazolo[1,5-a]pyrimidin-7-yl)methoxy]tetrahydro-3′H-spiro[cyclobutane-1,2′-pyrrolo[2,1-b][1,3]oxazol]-3′-one]
0.231 µM | COc1cc(COC2CC3(C2)OC2CC[C@@H](c4cnccn4)N2C3=O)cc2nccn12 (stereo partly drawn) [Example 18.34, (5′S)-3-[(5-methoxyimidazo[1,2-a]pyridin-7-yl)methoxy]-5′-(pyrazin-2-yl)tetrahydro-3′H-spiro[cyclobutane-1,2′-pyrrolo[2,1-b][1,3]oxazol]-3′-one]
0.014 µM | O=C1N2C(CC[C@H]2c2cnccn2)OC12CC(OCc1ccc(N3CCOCC3)nc1)C2 (stereo partly drawn) [Example 18.35, (5′S)-3-{[6-(morpholin-4-yl)pyridin-3-yl]methoxy}-5′-(pyrazin-2-yl)tetrahydro-3′H-spiro[cyclobutane-1,2′-pyrrolo[2,1-b][1,3]oxazol]-3′-one]
0.028 µM | O=C1N2C(CC[C@H]2c2cnccn2)OC12CC(OCc1cccc3nccn13)C2 (stereo partly drawn) [Example 18.36, (5′S)-3-[(imidazo[1,2-a]pyridin-5-yl)methoxy]-5′-(pyrazin-2-yl)tetrahydro-3′H-spiro[cyclobutane-1,2′-pyrrolo[2,1-b][1,3]oxazol]-3′-one]
0.015 µM | O=C1N2C(CC[C@H]2c2cnccn2)OC12CC(OCc1ccc3cnccc3c1)C2 (stereo partly drawn) [Example 18.37, (5′S)-3-[(isoquinolin-6-yl)methoxy]-5′-(pyrazin-2-yl)tetrahydro-3′H-spiro[cyclobutane-1,2′-pyrrolo[2,1-b][1,3]oxazol]-3′-one]
0.012 µM | COc1ccc(COC2CC3(C2)OC2CC[C@@H](c4cnccn4)N2C3=O)cc1CC#N (stereo partly drawn) [Example 18.38, [2-methoxy-5-({[(5′S)-3′-oxo-5′-(pyrazin-2-yl)tetrahydro-3′H-spiro[cyclobutane-1,2′-pyrrolo[2,1-b][1,3]oxazol]-3-yl]oxy}methyl)phenyl]acetonitrile]
0.301 µM | O=C1N2C(CC[C@H]2c2cnccn2)OC12CC(OCc1cc(-n3ccnc3)ccn1)C2 (stereo partly shown) [Example 18.39]
0.119 µM | N#Cc1ccc(OC2CCC2)cc1COC1CC2(C1)OC1CC[C@@H](c3cnccn3)N1C2=O (stereo partly drawn) [Example 18.40, 4-(cyclobutyloxy)-2-({[(5′S)-3′-oxo-5′-(pyrazin-2-yl)tetrahydro-3′H-spiro[cyclobutane-1,2′-pyrrolo[2,1-b][1,3]oxazol]-3-yl]oxy}methyl)benzonitrile]
0.053 µM | COc1ccc2cc(COC3CC4(C3)OC3CC[C@@H](c5cnccn5)N3C4=O)cc(C)c2n1 (stereo partly drawn) [Example 18.41, (5′S)-3-[(2-methoxy-8-methylquinolin-6-yl)methoxy]-5′-(pyrazin-2-yl)tetrahydro-3′H-spiro[cyclobutane-1,2′-pyrrolo[2,1-b][1,3]oxazol]-3′-one]

More lines, now with the values behind:

Compound | EC50
O=C1N2C(CC[C@H]2c2cnccn2)OC12CC(OCc1cc3cncnc3s1)C2 (stereo partly drawn) [Example 18.20, (5′S)-5′-(pyrazin-2-yl)-3-[(thieno[2,3-d]pyrimidin-6-yl)methoxy]tetrahydro-3′H-spiro[cyclobutane-1,2′-pyrrolo[2,1-b][1,3]oxazol]-3′-one] | 0.022 µM
O=C1N2C(CC[C@H]2c2cnccn2)OC12CC(OCc1cccc3cncc(F)c13)C2 (stereo partly drawn) [Example 18.21, (5′S)-3-[(4-fluoroisoquinolin-5-yl)methoxy]-5′-(pyrazin-2-yl)tetrahydro-3′H-spiro[cyclobutane-1,2′-pyrrolo[2,1-b][1,3]oxazol]-3′-one] | 0.032 µM
O=C1N2C(CC[C@H]2c2cnccn2)OC12CC(OCc1ccc3nc(C4CC4)cn3c1)C2 (stereo partly drawn) [Example 18.22, (5′S)-3-[(2-cyclopropylimidazo[1,2-a]pyridin-6-yl)methoxy]-5′-(pyrazin-2-yl)tetrahydro-3′H-spiro[cyclobutane-1,2′-pyrrolo[2,1-b][1,3]oxazol]-3′-one] | 0.074 µM
O=C1N2[C@@H](CC[C@H]2c2cnccn2)O[C@]12C[C@@H](OCc1ccc3scnc3c1)C2 [Example 18.23, (1s,3S,5′S,7a′R)-3-[(1,3-benzothiazol-5-yl)methoxy]-5′-(pyrazin-2-yl)tetrahydro-3′H-spiro[cyclobutane-1,2′-pyrrolo [2,1-b][1,3]oxazol]-3′-one] | 0.027 µM
O=C1N2C(CC[C@H]2c2cnccn2)OC12CC(OCc1cnc(N3CCOCC3)nc1)C2 (stereo partly drawn) [Example 18.24, (5′S)-3-{[2-(morpholin-4-yl)pyrimidin-5-yl]methoxy}-5′-(pyrazin-2-yl)tetrahydro-3′H-spiro[cyclobutane-1,2′-pyrrolo[2,1-b][1,3]oxazol]-3′-one] | 0.31 µM
O=C1N2C(CC[C@H]2c2cnccn2)OC12CC(OCc1ccc(Cn3ccnc3)cc1)C2 (stereo partly drawn) [Example 18.25, (5′S)-3-({4-[(1H-imidazol-1-yl)methyl]phenyl}methoxy)-5′-(pyrazin-2-yl)tetrahydro-3′H-spiro[cyclobutane-1,2′-pyrrolo[2,1-b][1,3]oxazol]-3′-one] | 0.048 µM
O=C1N2C(CC[C@H]2c2cnccn2)OC12CC(OCc1cccc(Cn3ccnn3)c1)C2 (stereo partly drawn) [Example 18.26, (5′S)-5′-(pyrazin-2-yl)-3-({3-[(1H-1,2,3-triazol-1-yl)methyl]phenyl}methoxy) tetrahydro-3′H-spiro[cyclobutane-1,2′-pyrrolo[2,1-b][1,3]oxazol]-3′-one] | 0.034 µM
O=C1N2C(CC[C@H]2c2cnccn2)OC12CC(OCc1cncc(OCCF)c1)C2 (stereo partly drawn) [Example 18.27, (5′S)-3-{[5-(2-fluoroethoxy)pyridin-3-yl]methoxy}-5′-(pyrazin-2-yl)tetrahydro-3′H-spiro[cyclobutane-1,2′-pyrrolo[2,1-b][1,3]oxazol]-3′-one] | 0.126 µM
N#CC1(c2ccc(COC3CC4(C3)OC3CC[C@@H](c5cnccn5)N3C4=O)cn2)CCC1 (stereo partly drawn) [Example 18.28, 1-[5-({[(5′S)-3′-oxo-5′-(pyrazin-2-yl)tetrahydro-3′H-spiro[cyclobutane-1,2′-pyrrolo[2,1-b][1,3]oxazol]-3-yl]oxy}methyl)pyridin-2-yl]cyclobutane-1-carbonitrile] | 0.174 µM
N#CC1(c2ccc(COC3CC4(C3)OC3CC[C@@H](c5cnccn5)N3C4=O)c(Cl)c2)CC1 (stereo partly drawn) [Example 18.29, 1-[3-chloro-4-({[(5′S)-3′-oxo-5′-(pyrazin-2-yl)tetrahydro-3′H-spiro[cyclobutane-1,2′-pyrrolo[2,1-b][1,3]oxazol]-3-yl]oxy}methyl)phenyl]cyclopropane-1-carbonitrile] | 0.012 µM
O=C1N2C(CC[C@H]2c2cnccn2)OC12CC(OCc1ccc(-c3ccon3)cc1)C2 (stereo partly drawn) [Example 18.30, (5′S)-3-{[4-(1,2-oxazol-3-yl)phenyl]methoxy}-5′-(pyrazin-2-yl)tetrahydro-3′H-spiro[cyclobutane-1,2′-pyrrolo[2,1-b][1,3]oxazol]-3′-one] | 0.045 µM
COc1ccc2cc(COC3CC4(C3)OC3CC[C@@H](c5cnccn5)N3C4=O)ncc2n1 (stereo partly drawn) [Example 18.32, (5′S)-3-[(2-methoxy-1,7-naphthyridin-6-yl)methoxy]-5′-(pyrazin-2-yl)tetrahydro-3′H-spiro[cyclobutane-1,2′-pyrrolo[2,1-b][1,3]oxazol]-3′-one] | 0.143 µM
O=C1N2C(CC[C@H]2c2cnccn2)OC12CC(OCc1cc(Cl)ccc1-c1cnco1)C2 (stereo partly drawn) [Example 18.33, (5′S)-3-{[5-chloro-2-(1,3-oxazol-5-yl)phenyl]methoxy}-5′-(pyrazin-2-yl)tetrahydro-3′H-spiro[cyclobutane-1,2′-pyrrolo[2,1-b][1,3]oxazol]-3′-one] | 0.043 µM
